Source: publication PMC5973995 (Clinical Pharmacokinetics, 2017)
Where two headings read alike, the source gives them in different places.

What was measured:
Distribution coefficient = format: physicochemical; details: data on file
[1] = Mass balance, single oral dose of 50 mg 14C-labeled vortioxetine; format: in vivo, human; details: single oral dose 50 mg 14C-labeled; data on file
CYP2A6 = target: T1, CYP2A6 (Homo sapiens, UniProt P11509); assay: In-vitro CYP inhibition in pooled human liver microsomes; format: in vitro ADME; details: data on file
T1 sequence (P11509 1-494): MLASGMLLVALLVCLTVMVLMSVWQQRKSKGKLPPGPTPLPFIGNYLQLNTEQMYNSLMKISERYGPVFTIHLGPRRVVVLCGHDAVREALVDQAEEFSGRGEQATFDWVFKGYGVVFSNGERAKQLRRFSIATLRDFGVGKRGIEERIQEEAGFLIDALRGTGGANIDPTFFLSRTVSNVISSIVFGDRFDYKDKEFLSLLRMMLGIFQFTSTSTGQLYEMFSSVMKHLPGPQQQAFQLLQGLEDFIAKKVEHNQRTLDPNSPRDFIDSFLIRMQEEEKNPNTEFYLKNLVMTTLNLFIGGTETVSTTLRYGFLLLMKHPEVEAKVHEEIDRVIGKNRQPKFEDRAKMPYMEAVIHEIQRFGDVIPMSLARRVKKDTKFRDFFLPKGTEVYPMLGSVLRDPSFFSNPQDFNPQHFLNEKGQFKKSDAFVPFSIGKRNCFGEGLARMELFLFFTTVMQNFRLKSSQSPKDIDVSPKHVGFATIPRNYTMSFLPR

CYP2E1 = CYP2E1 (Homo sapiens, UniProt P05181); assay: as above; format: in vitro ADME; details: data on file
CYP2C8 = target: T2, CYP2C8 (Homo sapiens, UniProt P10632); assay: as above; format: in vitro ADME
T2 sequence (P10632 1-490): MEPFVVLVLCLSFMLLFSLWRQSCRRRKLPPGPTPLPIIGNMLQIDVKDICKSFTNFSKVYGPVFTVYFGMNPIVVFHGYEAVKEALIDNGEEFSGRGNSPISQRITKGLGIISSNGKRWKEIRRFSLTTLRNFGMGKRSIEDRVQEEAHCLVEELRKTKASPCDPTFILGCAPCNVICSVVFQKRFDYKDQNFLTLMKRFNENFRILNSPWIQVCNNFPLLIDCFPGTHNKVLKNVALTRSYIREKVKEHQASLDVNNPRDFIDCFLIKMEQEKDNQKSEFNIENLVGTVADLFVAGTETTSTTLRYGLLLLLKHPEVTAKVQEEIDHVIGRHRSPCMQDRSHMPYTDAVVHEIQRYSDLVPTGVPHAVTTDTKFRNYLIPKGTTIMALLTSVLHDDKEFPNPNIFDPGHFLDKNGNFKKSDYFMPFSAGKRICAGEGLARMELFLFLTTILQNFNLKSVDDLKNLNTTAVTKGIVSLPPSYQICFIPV

[2] = Tolerability / adverse events in phase I studies; format: in vivo, human; details: phase I data grouped by CYP2D6-predicted phenotypes
[3] = once-daily dosing; cited from earlier work
[4] = cited from earlier work
[5] = cited from earlier work; remark: listed apart in the source
[6] = cited from earlier work; remark: listed apart in the source
plasma protein = details: healthy volunteers and hepatic or renal impairment; cited from earlier work
[7] = cited from earlier work; remark: listed apart in the source
[8] = cited from earlier work; remark: listed apart in the source
[9] = cited from earlier work; remark: listed apart in the source
SERT = details: Japanese and white male individuals, cited from earlier work
[10] = once-daily 10 mg; 21 young individuals; cited from earlier work
[11] = cited from earlier work; remark: listed apart in the source
5-HT1A receptor = details: in vitro; cited from earlier work
5-HT3 receptor = details: in vitro; cited from earlier work
5-HT1D receptor = details: in vitro; cited from earlier work
5-HT transporter (SERT) = details: in vitro; cited from earlier work
[12] = simulation, 20 mg at steady state
[13] = within 360 h, single 50-mg 14C dose
[14] = 10 mg daily for 14 days (Fig. 2)
[15] = single dose 10 mg, 65–85 vs 18–45 years
[16] = single dose, 24 male vs 24 female

Sequence of CYP2E1 (P05181 whole entry): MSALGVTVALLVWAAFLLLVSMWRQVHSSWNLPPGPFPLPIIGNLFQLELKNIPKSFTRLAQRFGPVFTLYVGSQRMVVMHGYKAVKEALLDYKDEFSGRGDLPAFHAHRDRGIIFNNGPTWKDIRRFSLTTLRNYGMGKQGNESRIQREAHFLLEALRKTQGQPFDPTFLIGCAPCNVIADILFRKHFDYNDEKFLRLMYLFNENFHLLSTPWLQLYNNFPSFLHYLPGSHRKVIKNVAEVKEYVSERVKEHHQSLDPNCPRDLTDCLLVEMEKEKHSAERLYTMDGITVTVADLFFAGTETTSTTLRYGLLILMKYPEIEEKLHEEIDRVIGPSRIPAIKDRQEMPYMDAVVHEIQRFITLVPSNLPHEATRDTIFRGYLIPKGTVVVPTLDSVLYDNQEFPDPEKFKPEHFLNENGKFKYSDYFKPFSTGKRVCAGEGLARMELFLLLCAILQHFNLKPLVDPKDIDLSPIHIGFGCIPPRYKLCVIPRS

**Q.** What does the source list for `Br.Cc1ccc(Sc2ccccc2N2CCNCC2)c(C)c1` [vortioxetine, 1-[2-(2,4-dimethyl-phenylsulfanyl)-phenyl]-piperazine, hydrobromide]?
**A.** distribution coefficient (octanol/water) (Distribution coefficient; pH 3, 25 °C): 2.2; distribution coefficient (octanol/water) (Distribution coefficient; pH 11, 25 °C): 4.7; red blood cell distribution [1]: negligible; inhibitory in-vitro effect on CYP2A6 (CYP2A6): no inhibitory in-vitro effect; inhibitory in-vitro effect on CYP2E1 (CYP2E1): no inhibitory in-vitro effect; ratio of maximum plasma concentration of inhibitor (I) and Ki (CYP2C8; CYP2C8, much smaller than): smaller than 0.1; inhibitory effect on CYP2C8 (CYP2C8; pooled human liver microsomes, CYP isozyme-specific probe substrates, data on file): inhibitory effect; overall incidence of adverse events, CYP2D6 PMs vs non-PMs [2]: no clinically relevant differences; time to steady-state plasma concentrations [3]: ≤ 2 weeks; estimated CL/F ([4]; CYP2D6 EMs): 34.1 L/h; estimated CL/F ([4]; CYP2D6 IMs): 26.6 L/h; estimated CL/F ([4]; CYP2D6 PMs): 18.1 L/h; estimated CL/F ([4]; CYP2D6 UMs): 52.9 L/h; oral clearance, CYP2C19 EMs relative to PMs [4]: 1.4 times; oral clearance, CYP2D6 EMs higher than PMs [4]: approximately two-fold; exposure in CYP2D6 PMs relative to CYP2D6 EMs ([4]; expected): twice as high; population mean AUC lower in CYP2D6 UMs than EMs ([4]; expected): 35.5%; estimated minimal lag time ([4]; oral): 0.781 h; mean oral clearance ([4]; phase I population-PK analysis): 33 L/h; AUC(0–24) higher, 75-year-old vs 40-year-old [4, 12]: 40%; AUC(0–24) lower, 18-year-old vs 40-year-old [4, 12]: 15%; C max higher, 75-year-old vs 40-year-old [4, 12]: 38%; C max lower, 18-year-old vs 40-year-old [4, 12]: 14%; C max and AUC(0–24) higher, 155 cm vs 175 cm person ([4]; simulation, 20 mg): 5%; C max and AUC(0–24) lower, 187 cm vs 175 cm person ([4]; simulation, 20 mg): 4%; effect of food (high-fat meal) on PK parameters ([5]; fed vs fasting): No food effect; 90% CIs for AUC(0–t) or AUC(0–inf) and C max ratios (fed to fasting) ([5]; high-fat meal, within bioequivalence range): 80–125%; parent drug detected in the feces ([6]; single 50-mg 14C dose, feces only): 1.5%; drug concentration in plasma relative to whole blood ([6]; single oral dose 50 mg 14C-labeled): double; drug-related material recovered in feces [6, 13]: 26%; drug-related material recovered in urine [6, 13]: 59%; drug-related material recovered in urine and feces [6, 13]: approximately 85%; bound to plasma protein (plasma protein): Approximately 99%; unbound drug (plasma protein): 1%; hepatic clearance, contribution to CL/F [7]: 99%; renal clearance of parent drug, contribution to CL/F [7]: < 1%; AUC(0–24) higher in black than white volunteers [8, 14]: 25%; C max higher in black than white volunteers [8, 14]: 33%; AUC(0–t) higher in elderly than young subjects [8, 15]: 4%; C max lower in elderly than young subjects [8, 15]: 11%; AUC(0–t) higher in female than male subjects [8, 16]: 18%; C max higher in female than male subjects [8, 16]: 16%; plasma protein binding, renally compromised vs healthy controls [9]: no difference; C max lower than healthy controls ([9]; end-stage renal disease, single dose 10 mg (Fig. 2)): 27%; predicted exposure, difference from healthy control group ([9]; linear regression on creatinine clearance): ≤ 30%; AUC(0–t) higher than healthy controls ([9]; mild renal impairment, single dose 10 mg): 9%; C max difference from healthy controls ([9]; mild, moderate, or severe renal impairment, single dose 10 mg): ≤ 11%; AUC(0–t) higher than healthy controls ([9]; moderate renal impairment, single dose 10 mg): 16%; AUC(0–t) higher than healthy controls ([9]; severe renal impairment, single dose 10 mg): 11%; SERT occupancy (SERT; 5-mg dose): approximately 50%; SERT occupancy (SERT; 10-mg dose): ~65%; SERT occupancy (SERT; 20-mg dose): above 80%; impairment of driving, cognitive function, or psychomotor skills [10]: not to impair; effect on neuropsychologic tests of cognitive domains with diazepam ([11]; co-administration with diazepam): did not have a statistically significant effect; effect on mental and motor impairment effects of alcohol ([11]; computerized neuropsychologic tests): did not increase; action at 5-HT1A receptor (5-HT1A receptor): agonist; action at 5-HT3 receptor (5-HT3 receptor): antagonist; action at 5-HT1D receptor (5-HT1D receptor): antagonist; action at 5-HT transporter (SERT) (5-HT transporter (SERT)): inhibitor
